Reference: paper PMC7941592 (Journal of natural products, 2021)
Where a SMILES comes first, the peptide text is derived from it. [ ]: non-standard residue; d: D form. The star is where a group is joined. X1 = CC(C)C[C@@H](C[N+]1=C2CCCN2CCC1)N*; dIva = CC[C@@](C)(N)C(=O)O; Pip = O=C(O)[C@@H]1CCCCN1; Aib = CC(C)(N)C(=O)O; βAla = NCCC(=O)O

Assays:
P. falciparum = details: read-out: EC50 against P. falciparum; cited from earlier work
[1] = test system: multi-drug-resistant P. falciparum line Dd2; format: cell-based, Plasmodium falciparum

## CC[C@H](C)[C@@H](C(=O)O[C@@H](CC(C)C)C(=O)N[C@@H](CC(C)C)C(=O)N[C@@H](C)/C=C/C(=O)N1C(=O)C=C(OC)[C@@H]1C)N(C)C [Gallinamide A]
P. falciparum
  EC50: 8.4 µM

## CC[C@@](C)(NC(=O)[C@H](CC(C)C)NC(=O)[C@H](C)NC(=O)C(C)(C)NC(=O)[C@@H]1CCCCN1C(=O)C(C)(C)NC(=O)C(C)(C)NC(=O)CNC(=O)CCNC(=O)[C@H](CC(C)C)NC(=O)C(C)(C)NC(=O)C(C)(C)NC(=O)[C@@H]1CCCCN1C(=O)C(C)(C)NC(=O)[C@@H]1CCCCN1C(C)=O)C(=O)N[C@@H](CC(C)C)C[N+]1=C2CCCN2CCC1 [efrapeptin F (53), efrapeptin F] (Ac-[Pip][Aib][Pip][Aib][Aib]L[βAla]G[Aib][Aib][Pip][Aib]AL[dIva]-X1; N-terminus and C-terminus assumed)
[1]
  antiplasmodial activity in words: submicromolar
